Measured values published in patent publication US8735414B2 (priority 2009, dated 2014).

What was measured:
[1] = system: bicistronic HCV replicon (replicon RNA, GenBank Accession No. AJ242654); assay: HCV Replicon Assay; format: cell-based; settings: Hepatitis C virus, 72 h, read-out: Replicon IC50

| Compound | melting point | IC50 [1] |
| --- | --- | --- |
| COc1ccc2c(C#N)c(-c3ncc(S(=O)(=O)N[C@@H](C)C(F)(F)F)cn3)n(C3CCCC3)c2c1 [compound 406, 2-(3-cyano-1-cyclopentyl-6-methoxy-1H-indol-2-yl)-N-[(2S)-1,1,1-trifluoropropan-2-yl]pyrimidine-5-sulfonamide] | 211 to 212 °C | < 500 nM |
| Cc1cc2c(cc1F)c(C#N)c(-c1ccc(S(=O)(=O)NC(CF)CF)cn1)n2C1CCCC1 [compound 407, 6-(3-cyano-1-cyclopentyl-5-fluoro-6-methyl-1H-indol-2-yl)-N-(1,3-difluoropropan-2-yl)pyridine-3-sulfonamide] | 211 to 213 °C | < 500 nM |
| Cc1cc2c(cc1F)c(C#N)c(-c1ccc(S(=O)(=O)N[C@@H](C)C(F)(F)F)cn1)n2C1CCCC1 [compound 408, 6-(3-cyano-1-cyclopentyl-5-fluoro-6-methyl-1H-indol-2-yl)-N-[(2S)-1,1,1-trifluoropropan-2-yl]pyridine-3-sulfonamide] | 168 to 171 °C | < 500 nM |
| C[C@H](NS(=O)(=O)c1ccc(-c2c(C#N)c3cc(F)ccc3n2C2CCCCC2)nc1)C(F)(F)F [compound 410, 6-(3-cyano-1-cyclohexyl-5-fluoro-1H-indol-2-yl)-N-[(2S)-1,1,1-trifluoropropan-2-yl]pyridine-3-sulfonamide] | 209 to 211 °C | < 500 nM |
| C[C@H](NS(=O)(=O)c1cnc(-c2c(C#N)c3ccc(F)cc3n2C2CCCCC2)nc1)C(F)(F)F [compound 411, 2-(3-cyano-1-cyclohexyl-6-fluoro-1H-indol-2-yl)-N-[(2S)-1,1,1-trifluoropropan-2-yl]pyrimidine-5-sulfonamide] | 224 to 226 °C | 500 to 2000 nM |
| C[C@@H](NS(=O)(=O)c1ccc(-c2c(C#N)c3cc(F)ccc3n2C2C=CCCC2)nc1)C(F)(F)F (stereo partly drawn) [compound 412, 6-[3-cyano-1-(cyclohex-2-en-1-yl)-5-fluoro-1H-indol-2-yl]-N-[(2R)-1,1,1-trifluoropropan-2-yl]pyridine-3-sulfonamide] | 187 to 188 °C | < 500 nM |
| C[C@H](NS(=O)(=O)c1ccc(-c2c(C#N)c3cc(F)ccc3n2C2C=CCCC2)nc1)C(F)(F)F (stereo partly drawn) [compound 413, 6-[3-cyano-1-(cyclohex-2-en-1-yl)-5-fluoro-1H-indol-2-yl]-N-[(2S)-1,1,1-trifluoropropan-2-yl]pyridine-3-sulfonamide] | 186 to 187 °C | < 500 nM |
| Cc1ccc2c(c1)c(C#N)c(-c1ncc(S(=O)(=O)N[C@@H](C)C(F)(F)F)cn1)n2C1CCC1 [compound 414, 2-(3-cyano-1-cyclobutyl-5-methyl-1H-indol-2-yl)-N-[(2S)-1,1,1-trifluoropropan-2-yl]pyrimidine-5-sulfonamide] | 190 to 195 °C | < 500 nM |
| CC(C)NS(=O)(=O)c1cnc(-c2c(C#N)c3cc(F)ccc3n2C2CCC2)nc1 [compound 416, 2-(3-cyano-1-cyclobutyl-5-fluoro-1H-indol-2-yl)-N-(propan-2-yl)pyrimidine-5-sulfonamide] | 195 to 200 °C | < 500 nM |
| C[C@H](NS(=O)(=O)c1cnc(-c2c(C#N)c3ccc(Cl)cc3n2C2CCCC2)nc1)C(F)(F)F [compound 417, 2-(6-chloro-3-cyano-1-cyclopentyl-1H-indol-2-yl)-N-[(2S)-1,1,1-trifluoropropan-2-yl]pyrimidine-5-sulfonamide] | 220 to 224 °C | 500 to 2000 nM |
| CC(C)n1c(-c2ncc(S(=O)(=O)N[C@@H](C)C(F)(F)F)cn2)c(C#N)c2ccc(Cl)cc21 [compound 418, 2-[6-chloro-3-cyano-1-(propan-2-yl)-1H-indol-2-yl]-N-[(2S)-1,1,1-trifluoropropan-2-yl]pyrimidine-5-sulfonamide] | 241 to 248 °C | 500 to 2000 nM |
| C[C@H](NS(=O)(=O)c1cnc(-c2c(C#N)c3cc(Cl)ccc3n2C2CCCC2)nc1)C(F)(F)F [compound 419, 2-(5-chloro-3-cyano-1-cyclopentyl-1H-indol-2-yl)-N-[(2S)-1,1,1-trifluoropropan-2-yl]pyrimidine-5-sulfonamide] | 243 to 249 °C | 500 to 2000 nM |
| Cc1ccc2c(C#N)c(-c3ccc(S(=O)(=O)N[C@@H](C)C(F)(F)F)cn3)n(C3CCC3)c2c1F [compound 421, 6-(3-cyano-1-cyclobutyl-7-fluoro-6-methyl-1H-indol-2-yl)-N-[(2S)-1,1,1-trifluoropropan-2-yl]pyridine-3-sulfonamide] | 210 to 220 °C | < 500 nM |
| Cc1ccc2c(C#N)c(-c3ccc(S(=O)(=O)NC(CF)CF)cn3)n(C3CCC3)c2c1F [compound 422, 6-(3-cyano-1-cyclobutyl-7-fluoro-6-methyl-1H-indol-2-yl)-N-(1,3-difluoropropan-2-yl)pyridine-3-sulfonamide] | 186 to 201 °C | < 500 nM |
| Cc1ccc2c(C#N)c(-c3ccc(S(=O)(=O)NC(CF)CF)cn3)n(C3CCCC3)c2c1F [compound 423, 6-(3-cyano-1-cyclopentyl-7-fluoro-6-methyl-1H-indol-2-yl)-N-(1,3-difluoropropan-2-yl)pyridine-3-sulfonamide] | 211 to 216 °C | < 500 nM |
| Cc1ccc2c(C#N)c(-c3ccc(S(=O)(=O)N[C@@H](C)C(F)(F)F)cn3)n(C3CCCC3)c2c1F [compound 424, 6-(3-cyano-1-cyclopentyl-7-fluoro-6-methyl-1H-indol-2-yl)-N-[(2S)-1,1,1-trifluoropropan-2-yl]pyridine-3-sulfonamide] | 191 to 195 °C | < 500 nM |
| COc1ccc2c(C#N)c(-c3ccc(S(=O)(=O)N[C@@H](C)C(F)(F)F)cn3)n(C3CCC3)c2c1 [compound 427, 6-(3-cyano-1-cyclobutyl-6-methoxy-1H-indol-2-yl)-N-[(2S)-1,1,1-trifluoropropan-2-yl]pyridine-3-sulfonamide] | 206 to 212 °C | < 500 nM |
| COc1ccc2c(C#N)c(-c3ccc(S(=O)(=O)N[C@H](C)C(F)(F)F)cn3)n(C3CCC3)c2c1 [compound 428, 6-(3-cyano-1-cyclobutyl-6-methoxy-1H-indol-2-yl)-N-[(2R)-1,1,1-trifluoropropan-2-yl]pyridine-3-sulfonamide] | 206 to 212 °C | < 500 nM |
| COc1ccc2c(C#N)c(-c3ccc(S(=O)(=O)N[C@@H](C)C4CC4)cn3)n(C3CCC3)c2c1 [compound 429, 6-(3-cyano-1-cyclobutyl-6-methoxy-1H-indol-2-yl)-N-[(1S)-1-cyclopropylethyl]pyridine-3-sulfonamide] | 193 to 199 °C | < 500 nM |
| COc1ccc2c(C#N)c(-c3ccc(S(=O)(=O)N[C@@H](C)C(F)(F)F)cn3)n(C3CCCC3)c2c1 [compound 430, 6-(3-cyano-1-cyclopentyl-6-methoxy-1H-indol-2-yl)-N-[(2S)-1,1,1-trifluoropropan-2-yl]pyridine-3-sulfonamide] | 209 to 216 °C | < 500 nM |
| COc1ccc2c(C#N)c(-c3ccc(S(=O)(=O)N[C@H](C)C(F)(F)F)cn3)n(C3CCCC3)c2c1 [compound 431, 6-(3-cyano-1-cyclopentyl-6-methoxy-1H-indol-2-yl)-N-[(2R)-1,1,1-trifluoropropan-2-yl]pyridine-3-sulfonamide] | 209 to 216 °C | < 500 nM |
